Literature values in patent US20230404885A1, “EPIDERMAL STEM CELL PROLIFERATION-PROMOTING AGENT” (Shiseido Company, Ltd., priority 2020, published 2023).

Tests used:
MMP-9 = MMP-9 (Homo sapiens, UniProt P14780); conditions: known
MMP-1 = molecular target: T1, MMP-1 (Homo sapiens, UniProt P03956); conditions: known
T1 sequence (P03956 100-469): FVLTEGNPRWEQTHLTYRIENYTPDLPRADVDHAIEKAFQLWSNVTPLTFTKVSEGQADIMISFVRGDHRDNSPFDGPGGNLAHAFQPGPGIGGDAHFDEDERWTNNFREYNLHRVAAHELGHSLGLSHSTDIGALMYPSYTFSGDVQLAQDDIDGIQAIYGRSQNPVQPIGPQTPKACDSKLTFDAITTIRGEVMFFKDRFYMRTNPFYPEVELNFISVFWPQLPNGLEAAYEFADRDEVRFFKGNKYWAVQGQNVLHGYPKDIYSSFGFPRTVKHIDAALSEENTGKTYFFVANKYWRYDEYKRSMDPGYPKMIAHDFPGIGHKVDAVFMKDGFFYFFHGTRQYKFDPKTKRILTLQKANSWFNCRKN

MMP-2 = molecular target: T2, MMP-2 (Homo sapiens, UniProt P08253); conditions: known
T2 sequence (P08253 110-660): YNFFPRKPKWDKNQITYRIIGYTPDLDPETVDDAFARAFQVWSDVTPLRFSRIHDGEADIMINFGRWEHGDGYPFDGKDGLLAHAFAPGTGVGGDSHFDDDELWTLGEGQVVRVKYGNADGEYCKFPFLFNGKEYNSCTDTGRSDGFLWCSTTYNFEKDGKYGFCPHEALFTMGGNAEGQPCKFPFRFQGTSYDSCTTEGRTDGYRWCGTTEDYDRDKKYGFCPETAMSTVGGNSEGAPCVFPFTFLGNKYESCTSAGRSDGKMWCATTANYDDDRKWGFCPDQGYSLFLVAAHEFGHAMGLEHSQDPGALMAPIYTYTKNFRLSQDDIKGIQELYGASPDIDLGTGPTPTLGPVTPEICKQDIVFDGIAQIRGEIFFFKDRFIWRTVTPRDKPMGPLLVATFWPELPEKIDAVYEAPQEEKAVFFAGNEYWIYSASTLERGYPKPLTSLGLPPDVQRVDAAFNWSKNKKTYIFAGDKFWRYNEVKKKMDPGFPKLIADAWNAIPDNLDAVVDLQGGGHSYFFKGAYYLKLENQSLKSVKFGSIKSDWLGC

heparanase = molecular target: T3, heparanase (Homo sapiens, UniProt Q9Y251); conditions: known, see JP 2014-111640
T3 sequence (Q9Y251 36-543): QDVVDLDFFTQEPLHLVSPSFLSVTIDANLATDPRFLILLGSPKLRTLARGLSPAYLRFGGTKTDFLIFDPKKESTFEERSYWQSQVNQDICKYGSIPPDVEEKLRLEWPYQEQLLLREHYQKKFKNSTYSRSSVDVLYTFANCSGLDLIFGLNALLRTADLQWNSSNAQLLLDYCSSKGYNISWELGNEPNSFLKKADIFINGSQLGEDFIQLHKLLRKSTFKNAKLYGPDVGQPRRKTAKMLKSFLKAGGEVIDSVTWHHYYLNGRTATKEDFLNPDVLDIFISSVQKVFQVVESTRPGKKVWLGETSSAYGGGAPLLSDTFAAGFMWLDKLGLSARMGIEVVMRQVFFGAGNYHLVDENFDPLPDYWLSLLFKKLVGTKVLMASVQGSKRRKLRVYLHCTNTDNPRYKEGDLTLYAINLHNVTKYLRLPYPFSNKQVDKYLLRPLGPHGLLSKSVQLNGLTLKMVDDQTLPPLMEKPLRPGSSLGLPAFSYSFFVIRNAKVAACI

Sequence of MMP-9 (P14780 94-707): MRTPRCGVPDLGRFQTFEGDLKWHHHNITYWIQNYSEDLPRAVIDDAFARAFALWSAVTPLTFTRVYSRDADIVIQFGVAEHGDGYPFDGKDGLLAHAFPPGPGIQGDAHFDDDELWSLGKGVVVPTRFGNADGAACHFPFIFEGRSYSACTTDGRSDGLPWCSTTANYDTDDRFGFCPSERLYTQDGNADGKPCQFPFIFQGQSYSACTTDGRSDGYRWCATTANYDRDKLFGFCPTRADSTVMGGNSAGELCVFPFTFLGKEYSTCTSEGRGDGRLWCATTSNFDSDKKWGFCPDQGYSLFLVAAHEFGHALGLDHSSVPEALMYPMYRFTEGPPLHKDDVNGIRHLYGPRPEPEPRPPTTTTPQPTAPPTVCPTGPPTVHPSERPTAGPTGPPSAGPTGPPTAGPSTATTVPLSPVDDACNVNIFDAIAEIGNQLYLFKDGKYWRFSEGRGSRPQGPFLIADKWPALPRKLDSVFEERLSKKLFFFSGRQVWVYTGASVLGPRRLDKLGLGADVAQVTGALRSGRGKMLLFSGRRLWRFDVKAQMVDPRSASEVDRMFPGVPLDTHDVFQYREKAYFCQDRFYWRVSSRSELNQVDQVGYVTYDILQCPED

MMP-9 inhibition (MMP-9): inhibits
effect on activity of MMP-1 (MMP-1): does not affect
effect on activity of MMP-2 (MMP-2): does not affect
heparanase activity inhibition (heparanase): inhibitors of the heparanase activity
Compound: O=C1NCCN1CCO [S173, 1-(2-hydroxyethyl)-2-imidazolidinone]
